Experimental findings from ChEMBL document CHEMBL1138103, “Synthesis and antibacterial activity of new fluoroquinolones containing a substituted N-(phenethyl)piperazine moiety” (2006) are described below.

≈ marks a conversion by molar mass, not a printed value.

Assay type in all cases: functional
Test [1] relates to Pseudomonas aeruginosa. Nature of the test: microbe, parasite or virus in culture. As to conditions: ATCC 9027.
Description: Antibacterial activity against Pseudomonas aeruginosa ATCC 9027 by agar-dilution method
Test [2] has as its system Klebsiella pneumoniae. The test can be described thus: microbe, parasite or virus in culture. As to conditions: ATCC 10031.
Description: Antibacterial activity against Klebsiella pneumoniae ATCC 10031 by agar-dilution method
The test system of test [3] is Staphylococcus epidermidis. The test can be described thus: microbe, parasite or virus in culture. As to conditions: ATCC 12228.
Description: Antibacterial activity against Staphylococcus epidermidis ATCC 12228 by agar-dilution method
In test [4] the test system is Bacillus subtilis. Nature of the test: microbe, parasite or virus in culture. To be noted: ATCC 6633.
Description: Antibacterial activity against Bacillus subtilis ATCC 6633 by agar-dilution method
Test [5] concerns Escherichia coli. Nature of the test: microbe, parasite or virus in culture. As to conditions: ATCC 8739.
Description: Antibacterial activity against Escherichia coli ATCC 8739 by agar-dilution method
Test [6] relates to Staphylococcus aureus. Nature of the test: microbe, parasite or virus in culture. To be noted: ATCC 6538P.
Description: Antibacterial activity against Staphylococcus aureus ATCC 6538p by agar-dilution method
Test [7] concerns Staphylococcus aureus. The test can be described thus: Antibacterial activity against methicillin-resistant Staphylococcus aureus 1 by agar-dilution method.
Test [8] relates to Staphylococcus aureus. Nature of the test: Antibacterial activity against methicillin-resistant Staphylococcus aureus 2 by agar-dilution method.

Take `CCn1cc(C(=O)O)c(=O)c2cc(F)c(N3CCN(C/C(=N\OC)c4ccc(F)cc4)CC3)cc21`: the MIC was determined as 100 µg/mL (≈ 206 µM) in test [1]; 0.78 µg/mL (≈ 1.61 µM) in test [2]; 1.56 µg/mL (≈ 3.22 µM) in test [3]; 3.13 µg/mL (≈ 6.46 µM) in test [4]; 3.13 µg/mL (≈ 6.46 µM) in test [5]; 6.25 µg/mL (≈ 12.9 µM) in test [6].
Regarding `CCn1cc(C(=O)O)c(=O)c2cc(F)c(N3CCN(C/C(=N\OC)c4ccc(Cl)cc4Cl)CC3)cc21`, the MIC in test [1] was > 100 µg/mL; in test [2] it was 6.25 µg/mL (≈ 11.7 µM); in test [3], 12.5 µg/mL (≈ 23.3 µM); in test [4], 12.5 µg/mL (≈ 23.3 µM); in test [5], 12.5 µg/mL (≈ 23.3 µM); in test [6], 12.5 µg/mL (≈ 23.3 µM).
On to `CO/N=C(\CN1CCN(c2cc3c(cc2F)c(=O)c(C(=O)O)cn3C2CC2)CC1)c1ccccc1Cl`, for which the MIC worked out at 6.25 µg/mL (≈ 12.2 µM) in test [1]; 0.013 µg/mL (≈ 0.0253 µM) in test [2]; 0.195 µg/mL (≈ 0.38 µM) in test [3]; 0.049 µg/mL (≈ 0.0955 µM) in test [4]; 0.39 µg/mL (≈ 0.76 µM) in test [7]; 0.025 µg/mL (≈ 0.0487 µM) in test [5]. Besides, the MIC in test [8] and in test [6] was 0.39 µg/mL (≈ 0.76 µM) each time.
Regarding `CCn1cc(C(=O)O)c(=O)c2cc(F)c(N3CCN(C/C(=N\OC)c4ccccc4)CC3)cc21`, the MIC in test [1] is > 100 µg/mL; in test [2] it was 12.5 µg/mL (≈ 26.8 µM); in test [3] it was 25 µg/mL (≈ 53.6 µM); in test [4] it was 6.25 µg/mL (≈ 13.4 µM); in test [5] it was 12.5 µg/mL (≈ 26.8 µM); in test [6], 25 µg/mL (≈ 53.6 µM).
Consider `CO/N=C(\CN1CCN(c2cc3c(cc2F)c(=O)c(C(=O)O)cn3C2CC2)CC1)c1ccc(Cl)cc1Cl`, for which the MIC in test [1] amounted to 1.56 µg/mL (≈ 2.85 µM); in test [2], 0.012 µg/mL (≈ 0.0219 µM); in test [3], 0.39 µg/mL (≈ 0.712 µM); in test [4], 0.025 µg/mL (≈ 0.0457 µM); in test [7], 0.39 µg/mL (≈ 0.712 µM); in test [5], 0.025 µg/mL (≈ 0.0457 µM). Besides, the MIC in test [8] and in test [6] was 0.39 µg/mL (≈ 0.712 µM) throughout.
As to `CO/N=C(\CN1CCN(c2cc3c(cc2F)c(=O)c(C(=O)O)cn3C2CC2)CC1)c1ccc(F)cc1F`, the MIC in test [1] was determined as 12.5 µg/mL (≈ 24.3 µM); in test [2], 0.78 µg/mL (≈ 1.52 µM); in test [3], 6.25 µg/mL (≈ 12.1 µM); in test [4], 0.78 µg/mL (≈ 1.52 µM); in test [5] it was 1.56 µg/mL (≈ 3.03 µM); in test [6], 6.25 µg/mL (≈ 12.1 µM).
Regarding `O=C(O)c1cn(C2CC2)c2cc(N3CCNCC3)c(F)cc2c1=O` [CIPROFLOXACIN], the MIC stood at 0.78 µg/mL (≈ 2.35 µM) in test [1]; 0.025 µg/mL (≈ 0.0754 µM) in test [2]; 0.39 µg/mL (≈ 1.18 µM) in test [3]; 0.025 µg/mL (≈ 0.0754 µM) in test [4]; 0.39 µg/mL (≈ 1.18 µM) in test [7]; 0.025 µg/mL (≈ 0.0754 µM) in test [5]. For the same compound, the MIC in test [8] and in test [6] was 0.39 µg/mL (≈ 1.18 µM) each time.
Regarding `CCn1cc(C(=O)O)c(=O)c2cc(F)c(N3CCNCC3)nc21` [ENOXACIN], the MIC was determined as 6.25 µg/mL (≈ 19.5 µM) in test [1]; 0.098 µg/mL (≈ 0.306 µM) in test [2]; 0.78 µg/mL (≈ 2.44 µM) in test [3]; 0.098 µg/mL (≈ 0.306 µM) in test [4]; 0.098 µg/mL (≈ 0.306 µM) in test [5]; 1.56 µg/mL (≈ 4.87 µM) in test [6].
As for `CO/N=C(\CN1CCN(c2cc3c(cc2F)c(=O)c(C(=O)O)cn3C2CC2)CC1)c1ccc(F)cc1`, the MIC in test [1] was 50 µg/mL (≈ 101 µM); in test [2], 3.13 µg/mL (≈ 6.3 µM); in test [3], 6.25 µg/mL (≈ 12.6 µM); in test [4], 6.25 µg/mL (≈ 12.6 µM); in test [5], 3.13 µg/mL (≈ 6.3 µM); in test [6], 6.25 µg/mL (≈ 12.6 µM).
With `O=C(CN1CCN(c2cc3c(cc2F)c(=O)c(C(=O)O)cn3C2CC2)CC1)c1ccccc1Cl`, the MIC in test [1] was 6.25 µg/mL (≈ 12.9 µM); in test [2], 0.025 µg/mL (≈ 0.0517 µM); in test [3] it was 0.195 µg/mL (≈ 0.403 µM); in test [4], 0.049 µg/mL (≈ 0.101 µM); in test [7] it was 0.39 µg/mL (≈ 0.806 µM); in test [5], 0.098 µg/mL (≈ 0.203 µM). Also, the MIC in test [8] and in test [6] was 0.39 µg/mL (≈ 0.806 µM) throughout.
Take `CCn1cc(C(=O)O)c(=O)c2cc(F)c(N3CCN(C/C(=N\OC)c4ccc(F)cc4F)CC3)nc21`: the MIC in test [1] was > 100 µg/mL; in test [2], 25 µg/mL (≈ 49.7 µM); in test [3], 25 µg/mL (≈ 49.7 µM); in test [4], 1.56 µg/mL (≈ 3.1 µM); in test [5] it was 50 µg/mL (≈ 99.3 µM); in test [6], 25 µg/mL (≈ 49.7 µM).
For the compound `CO/N=C(\CN1CCN(c2cc3c(cc2F)c(=O)c(C(=O)O)cn3C2CC2)CC1)c1ccc(Cl)cc1`, the MIC in test [1] was > 100 µg/mL; in test [2], 0.78 µg/mL (≈ 1.52 µM); in test [3], 0.39 µg/mL (≈ 0.76 µM); in test [4] it was 1.56 µg/mL (≈ 3.04 µM); in test [7], 0.39 µg/mL (≈ 0.76 µM); in test [5], 1.56 µg/mL (≈ 3.04 µM). Also, the MIC came to 0.39 µg/mL (≈ 0.76 µM) in test [8] and 0.78 µg/mL (≈ 1.52 µM) in test [6].
On to `O=C(O)c1cn(C2CC2)c2cc(N3CCN(C/C(=N\O)c4ccc(Cl)cc4)CC3)c(F)cc2c1=O`, for which the MIC in test [1] was determined as 100 µg/mL (≈ 200 µM); in test [2] it was 0.049 µg/mL (≈ 0.0982 µM); in test [3] it was 0.195 µg/mL (≈ 0.391 µM); in test [4] it was 0.78 µg/mL (≈ 1.56 µM); in test [7], 0.195 µg/mL (≈ 0.391 µM); in test [5], 0.78 µg/mL (≈ 1.56 µM). The figures for the MIC in test [8] and in test [6] were 0.098 µg/mL (≈ 0.196 µM) and 0.39 µg/mL (≈ 0.782 µM), respectively.
Take `O=C(O)c1cn(C2CC2)c2cc(N3CCN(C/C(=N\O)c4ccccc4Cl)CC3)c(F)cc2c1=O`: the MIC in test [1] worked out at 25 µg/mL (≈ 50.1 µM); in test [2] it was 0.025 µg/mL (≈ 0.0501 µM); in test [3] it was 0.195 µg/mL (≈ 0.391 µM); in test [4] it was 0.78 µg/mL (≈ 1.56 µM); in test [7], 0.39 µg/mL (≈ 0.782 µM); in test [5], 0.78 µg/mL (≈ 1.56 µM). Moreover, the MIC in test [8] and in test [6] was 0.39 µg/mL (≈ 0.782 µM) each time.
On to `O=C(CN1CCN(c2cc3c(cc2F)c(=O)c(C(=O)O)cn3C2CC2)CC1)c1ccc(Cl)cc1`, for which the MIC came out at 1.56 µg/mL (≈ 3.22 µM) in test [1]; 0.013 µg/mL (≈ 0.0269 µM) in test [2]; 0.195 µg/mL (≈ 0.403 µM) in test [3]; 0.049 µg/mL (≈ 0.101 µM) in test [4]; 0.39 µg/mL (≈ 0.806 µM) in test [7]; 0.025 µg/mL (≈ 0.0517 µM) in test [5]. The MIC in test [8] and in test [6] was 0.39 µg/mL (≈ 0.806 µM) in each case.
For the compound `CCn1cc(C(=O)O)c(=O)c2cc(F)c(N3CCN(C/C(=N\OC)c4ccc(F)cc4F)CC3)cc21`, the MIC in test [1] was > 100 µg/mL; in test [2], 12.5 µg/mL (≈ 24.9 µM); in test [3], 12.5 µg/mL (≈ 24.9 µM); in test [4], 1.56 µg/mL (≈ 3.1 µM); in test [5], 25 µg/mL (≈ 49.8 µM); in test [6], 12.5 µg/mL (≈ 24.9 µM).
Consider `CCn1cc(C(=O)O)c(=O)c2cc(F)c(N3CCN(C/C(=N\OC)c4ccccc4)CC3)nc21`, for which the MIC in test [1] is > 100 µg/mL; in test [2] it was 12.5 µg/mL (≈ 26.7 µM); in test [3] it was 25 µg/mL (≈ 53.5 µM); in test [4] it was 12.5 µg/mL (≈ 26.7 µM); in test [5] it was 12.5 µg/mL (≈ 26.7 µM); in test [6], 25 µg/mL (≈ 53.5 µM).
On to `CCn1cc(C(=O)O)c(=O)c2cc(F)c(N3CCN(C/C(=N\OC)c4ccc(F)cc4)CC3)nc21`, for which the MIC worked out at 100 µg/mL (≈ 206 µM) in test [1]; 1.56 µg/mL (≈ 3.21 µM) in test [2]; 6.25 µg/mL (≈ 12.9 µM) in test [3]; 6.25 µg/mL (≈ 12.9 µM) in test [4]; 6.25 µg/mL (≈ 12.9 µM) in test [5]; 12.5 µg/mL (≈ 25.7 µM) in test [6].
As to `CO/N=C(\CN1CCN(c2cc3c(cc2F)c(=O)c(C(=O)O)cn3C2CC2)CC1)c1ccccc1`, the MIC in test [1] turned out to be 100 µg/mL (≈ 209 µM); in test [2], 3.13 µg/mL (≈ 6.54 µM); in test [3], 12.5 µg/mL (≈ 26.1 µM); in test [4], 6.25 µg/mL (≈ 13.1 µM); in test [5], 6.25 µg/mL (≈ 13.1 µM); in test [6], 12.5 µg/mL (≈ 26.1 µM).
With `CCn1cc(C(=O)O)c(=O)c2cc(F)c(N3CCN(C/C(=N\OC)c4ccc(Cl)cc4Cl)CC3)nc21`, the MIC in test [1] came out at 50 µg/mL (≈ 93.2 µM); in test [2] it was 6.25 µg/mL (≈ 11.7 µM); in test [3] it was 25 µg/mL (≈ 46.6 µM); in test [4], 12.5 µg/mL (≈ 23.3 µM); in test [5] it was 12.5 µg/mL (≈ 23.3 µM); in test [6], 25 µg/mL (≈ 46.6 µM).
For `CCn1cc(C(=O)O)c(=O)c2cc(F)c(N3CCNCC3)cc21` [NORFLOXACIN], the MIC in test [1] is 3.13 µg/mL (≈ 9.8 µM); in test [2], 0.049 µg/mL (≈ 0.153 µM); in test [3], 0.78 µg/mL (≈ 2.44 µM); in test [4], 0.049 µg/mL (≈ 0.153 µM); in test [7], 0.78 µg/mL (≈ 2.44 µM); in test [5], 0.049 µg/mL (≈ 0.153 µM). Also, the MIC in test [8] and in test [6] was 0.78 µg/mL (≈ 2.44 µM) in each case.
